Assay results: patent US7320973B2, “Dihydrodiaryloxazepine derivative and pharmaceutical composition containing the same” (Ajinomoto Co., Inc., priority 2001, dated 2008)
Where a name gives a salt, the structure may show the parent alone.

How the values were obtained:
[1] = system: abdominal pain threshold on colorectal distension; assay: Elevation of threshold value of abdominal pain in in vivo rat colorectal distension model; settings: rats, oral administration
Protocol: The tests were conducted by a method of Saito et al. (Anesth. Analg. 1998; 87: 382-387).
Male Crj:CD rats (250-350 g) were used. A test compound was orally administered to them (n=8). A balloon (length: 7 cm) for dilating the colon was connected to a transducer . After fasting each rat for one day, the balloon was noninvasively inserted internally into the colorectal portion and the base of the balloon was positioned 1 cm from anus under light anesthesia with ether. Water was injected into the balloon at a rate of 0.9 ml/min until the inner pressure in the balloon reached 100 mmHg (cut off value). When the contraction of the abdominal muscle was macroscopically observed during the colon distension, the pressure in the balloon was taken as the threshold value of abdominal pain. The colon distension was conducted at intervals of at least 5 minutes.
The analgesic effect was determined according to the following formula: Analgesic effect (%)=[(threshold value of abdominal pain after treatment with test compound)−(threshold value of abdominal pain before treatment with test compound)]/[100−(threshold value of abdominal pain before treatment with test compound)]×100.
The analgesic effect was calculated as the dose of the test compound required for 50% control (ID50).

[2] = system: 5-HTP-induced defecation (diarrhea or loose stool); assay: In vivo 5-hydroxytryptophan (5-HTP)-induced defecation model of mice; set-up: species or system mouse; settings: oral administration 30 minutes before 5-HTP 10 mg/kg s.c., fecal score over 30 minutes
Protocol: The tests were conducted by a method of G. J. Sanger et al. (British Journal of Pharmacology, 130: 706-712, 2000).
Male SLC:ICR mice (6 weeks old) were moved to 5stainless steel cages connected together for mice. After the naturalization for at least one hour, a test compound was orally administered (n=10). 30 minutes after, 10 mg/5 mL/kg of 5-HTP or vehicle (5mL/kg of physiological saline for a group for which 5-HTP was not used) was injected subcutaneously. The state of the fecal pellets of each mouse excreted in 30 minutes immediately after the injection was observed [scored as 0 (normal fecal pellets or no fecal pellets) or 1(diarrhea or loose stool)]. The score obtained by subtracting the score of the group to which 5-HTP had not been given from the score of the group to which 5-HTP had been given was taken as 100%. The amount of a test compound for 50% control (ID50) was calculated.

Compound | ID50 (analgesic effect, threshold value of abdominal pain) [1] [mg/kg] | ID50 (5-HTP-induced defecation) [2] [mg/kg]
CN(C)c1ccc(CCN2CCC[C@@H]2CN2c3cc(Cl)ccc3COc3ccccc32)cc1 [Example 8, (R)-3-Chloro-5,11-dihydro-5-[1-(4-dimethylaminophenethyl)pyrrolidin-2-ylmethyl]dibenzo[b,e][1,4]oxazepine dihydrochloride] | 2.6 | 8.3
Fc1ccc2c(c1)OCc1ccccc1N2C[C@H]1CCCN1CCc1ccc(N2CCCC2)cc1 [Example 12, (R)-8-Fluoro-5,11-dihydro-5-[1-(4-pyrrolidinophenethyl)pyrrolidin-2-yl-methyl]dibenzo[b,e]1,4]oxazepine dihydrochloride] | 1.9 | –
